{"source": "patent US6225478A", "about": "“Iridoid derivatives and neovascularization inhibitors containing the same as active ingredient” (Tsumura & Co., priority 1999, dated 2001)"}
{"test_system": "human umbilical-vein endothelial cells (HUVEC)", "assay": "Tube Formation Assay (TFA) Test, HUVEC in collagen gel", "type": "cell-based", "details": "Homo sapiens, HUVEC, Tables 75-83; 0.32 mM sample solution; method as for Compounds 1 through 60; read-out: TFA Inhibition rate (%)", "procedure": "Furthermore, the sample liquids of compounds used in the CPA and CMA tests were prepared in the manner described below. Firstly, after weighing out each compound, a calculated amount of DMSO was added. After dissolving the compound in the DMSO, phosphate buffered physiological saline (PBS (-)) was added to bring the sample concentration to 1 mg/ml in PBS (-). The amount of DMSO used to dissolve the compounds was adjusted in advance to that the concentration of DMSO at that time was 5%. The resulting liquids were diluted 10-fold with 5% DMSO-PBS (-) solution to prepare sample solutions having a concentration of 0.1 mg/ml. In the TFA test, 320 μl of the prepared 1 mg/ml sample solutions were removed followed by addition of 680 μl of PBS (-) to prepare samples having a concentration of […]. Moreover, 100 μl of this solution was removed followed by addition of 900 μl of PBS (-) to dilute 10-fold and prepare samples having a concentration of 1 μg/ml. P [Cell Proliferation Assay (CPA) Test]\nTo begin with, 8 volumes of Type 1-A cell matrix (manufactured by Gibco Co.), 1 volume of 10×M119, and 1 volume of reconstituted buffer [200 mM HEPES, 0.05 N sodium hydroxide, 260 mM sodium bicarbonate] were slowly mixed under cooling with ice while avoiding bubbling to form a collagen gel. This collagen gel was distributed in a NUNC 24-well plate at 310 μl/well followed by allowing to stand undisturbed for 2 hours at 37° C. to solidify the gel.\nNext, the 7th subculture of HUVEC (1×10^5 cells/ml) obtained from the first generation in the same manner as above were disseminated at 500 μl/well. The cells were cultured for 2 hours at 37° C. to allow the cells to make contact with the collagen. After then removing the medium by aspiration, 50 μl of sample solution were added followed by addition of 310 μl/well of freshly prepared collagen gel and culturing for 1 hour and 10 minutes at 37° C. to solidify the double-layer gel.\n1 ml/well of M-199 medium containing 20% FCS, 30 ng /ml of b-FGF and 0.1 μM PMA were added to the wells followed by culturing for 20 hours at 37° C. in the presence of 5% CO2.\nMeasurement of the lengths of the formed tubes was performed using the public domain NIH Image with a computer.\nEvaluation was performed by calculating the inhibition rate (%) of tube formation according to the following formula.\nInhibition rate (%)=100-((formed tube length in presence of sample-formed tube length in presence of control (-))×100/(formed tube length in presence of control (+)-formed tube length in presence of control (-)))\n(§1) Samples were prepared using the present compounds of Compound No. I-60 through I-315. More specifically, 32 μl of a 20 mM sample solution dissolved in dimethylsulfoxide (DMSO) were removed and brought to a volume of 1 ml with phosphate-buffered saline (PBS) to prepare a sample solution having a concentration of 0.32 mM (containing 3.2% DMSO).\nThe testing method used for these compounds was the same as that used for the compounds of Compound No. 1 through 60 previously described.", "units": {"inhibition at 320 µM (stock)": "%"}}
{"smiles": "COC(=O)C1=CO[C@@H](OC(=O)Nc2ccc(F)cc2)[C@@H]2C(C)=CC[C@H]12", "note": "[I-156]", "inhibition at 320 µM (stock)": 10.9}
{"smiles": "COC(=O)C1=CO[C@@H](OC(=O)Nc2c(F)cccc2F)[C@@H]2C(C)=CC[C@H]12", "note": "[I-157]", "inhibition at 320 µM (stock)": 12.9}
{"smiles": "COC(=O)C1=CO[C@@H](OC(=O)Nc2ccccc2F)[C@@H]2C(C)=CC[C@H]12", "note": "[I-158]", "inhibition at 320 µM (stock)": 8.5}
{"smiles": "COC(=O)C1=CO[C@@H](OC(=O)Nc2ccc(Br)cc2)[C@@H]2C(C)=CC[C@H]12", "note": "[I-159]", "inhibition at 320 µM (stock)": 9.8}
{"smiles": "COC(=O)C1=CO[C@@H](OC(=O)Nc2cccc(C(F)(F)F)c2)[C@@H]2C(C)=CC[C@H]12", "note": "[I-160]", "inhibition at 320 µM (stock)": 13.8}
{"smiles": "COC(=O)C1=CO[C@@H](OC(=O)Nc2ccc(OC)cc2)[C@@H]2C(C)=CC[C@H]12", "note": "[I-161]", "inhibition at 320 µM (stock)": 8.2}
{"smiles": "COC(=O)C1=CO[C@@H](OC(=O)Nc2ccc(Cl)cc2)[C@@H]2C(C)=CC[C@H]12", "note": "[I-162]", "inhibition at 320 µM (stock)": 7.5}
{"smiles": "COC(=O)C1=CO[C@@H](OC(=O)Nc2ccc(Cl)c(Cl)c2)[C@@H]2C(C)=CC[C@H]12", "note": "[I-163]", "inhibition at 320 µM (stock)": 11.5}
{"smiles": "COC(=O)C1=CO[C@@H](OC(=O)Nc2ccc(Cl)cc2C(F)(F)F)[C@@H]2C(C)=CC[C@H]12", "note": "[I-164]", "inhibition at 320 µM (stock)": 2.5}
{"smiles": "COC(=O)C1=CO[C@@H](OC(=O)Nc2ccc(OC(F)(F)F)cc2)[C@@H]2C(C)=CC[C@H]12", "note": "[I-165]", "inhibition at 320 µM (stock)": 7.5}
{"smiles": "COC(=O)C1=CO[C@@H](OC(=O)Nc2cccc(C#N)c2)[C@@H]2C(C)=CC[C@H]12", "note": "[I-166]", "inhibition at 320 µM (stock)": 9.1}
{"smiles": "CCOC(=O)c1ccc(NC(=O)O[C@@H]2OC=C(C(=O)OC)[C@H]3CC=C(C)[C@@H]23)cc1", "note": "[I-167]", "inhibition at 320 µM (stock)": 5.1}
{"smiles": "COC(=O)C1=CO[C@@H](OC(=O)Nc2ccc([N+](=O)[O-])cc2)[C@@H]2C(C)=CC[C@H]12", "note": "[I-168]", "inhibition at 320 µM (stock)": 4.2}
{"smiles": "COC(=O)C1=CO[C@@H](OC(=O)Nc2ccc(C)cc2)[C@@H]2C(C)=CC[C@H]12", "note": "[I-169]", "inhibition at 320 µM (stock)": 13.7}
{"smiles": "COC(=O)C1=CO[C@@H](OC(=O)Nc2ccccc2)[C@@H]2C(C)=CC[C@H]12", "note": "[I-170]", "inhibition at 320 µM (stock)": 12.9}
{"smiles": "COC(=O)C1=CO[C@@H](OC(=O)Nc2cccc(C(C)=O)c2)[C@@H]2C(C)=CC[C@H]12", "note": "[I-171]", "inhibition at 320 µM (stock)": 5.8}
{"smiles": "COC(=O)C1=CO[C@@H](OC(=O)Nc2ccc(SC)cc2)[C@@H]2C(C)=CC[C@H]12", "note": "[I-172]", "inhibition at 320 µM (stock)": 8.7}
{"smiles": "COC(=O)C1=CO[C@@H](OC(=O)NCCCl)[C@@H]2C(C)=CC[C@H]12", "note": "[I-173]", "inhibition at 320 µM (stock)": 11.4}
{"smiles": "CNC(=O)O[C@@H]1OC=C(C(=O)OC)[C@H]2CC=C(C)[C@@H]12", "note": "[I-174]", "inhibition at 320 µM (stock)": 67}
{"smiles": "CCCCCCNC(=O)O[C@@H]1OC=C(C(=O)OC)[C@H]2CC[C@H](C)[C@@H]12", "note": "[I-175]", "inhibition at 320 µM (stock)": 7.5}
{"test_system": "HUFEC", "assay": "Cell Migration Assay (CMA) Test, inhibitory rate with control (-) correction", "type": "cell-based, human", "details": "Homo sapiens, 24 h, 125 μl of 0.32 mM sample solution in 4.0 ml medium, 80% or more = remarkable", "procedure": "as §1\nAfter disseminating the 7th subculture of […] obtained from the first generation at 4 ml/well (3.0×10^5 cells/well) in a collagen-coated 6-well plate (NUNC), the cells were cultured for 48 hours at 37° C. in the presence of 5% CO2. The cells reached nearly a completely confluent state as a result of this culturing.\nA double-edged, disposable razor blade was divided into four sections, of which one of those sections was pinched between a pair of forceps. Using this piece of razor blade, the cell surface in the above confluent state was scraped off.\nAfter washing the surface of the wells from which the cells had been scraped off with medium, 4.0 ml of fresh M199 (2+) medium were placed in the wells. 4.0 ml of M199 medium were added to the control (-) well.\n125 μl of sample solution (0.32 mM, containing 3.2% dimethylsulfoxide) were added to the wells.\n125 μl of PBS solution containing 3.2% dimethylsulfoxide were added to the control wells instead of sample. The cells were cultured for 24 hours at 37° C. in the presence of 5% CO2. After discarding the culture liquid, the cells were fixed for 30 minutes with methanol. Next, after […] the cells for 4 hours with Giemsa stain, the plates were washed with tap water and air dried.\nMeasurement of cell migration was performed by microscopically counting the number of cells that had newly migrated within the range of a 1 mm×1 mm block. […] The total number of cells counted in blocks 1 through 5 were then totaled to determine the overall total number of cells. Four fields were counted for each well.\nEvaluation was performed determining the cell migration inhibitory rate (%) according to the following equation.\nInhibitory rate=100-((number of migrating cells to which sample was added-number of migrating cells of control (-))×100/(number of migrating cells of control (+)-number of migrating cells of control (-)))\nIf this inhibitory rate was 80% or more, cell migration was assessed as being remarkable.", "units": {"inhibition at 320 µM (stock)": "%"}}
{"smiles": "COC(=O)C1=CO[C@@H](OC(=O)Nc2ccc(F)cc2)[C@@H]2C(C)=CC[C@H]12", "note": "[I-156]", "inhibition at 320 µM (stock)": 5.8}
{"smiles": "COC(=O)C1=CO[C@@H](OC(=O)Nc2c(F)cccc2F)[C@@H]2C(C)=CC[C@H]12", "note": "[I-157]", "inhibition at 320 µM (stock)": 7.7}
{"smiles": "COC(=O)C1=CO[C@@H](OC(=O)Nc2ccccc2F)[C@@H]2C(C)=CC[C@H]12", "note": "[I-158]", "inhibition at 320 µM (stock)": 7.3}
{"smiles": "COC(=O)C1=CO[C@@H](OC(=O)Nc2ccc(Br)cc2)[C@@H]2C(C)=CC[C@H]12", "note": "[I-159]", "inhibition at 320 µM (stock)": 39.5}
{"smiles": "COC(=O)C1=CO[C@@H](OC(=O)Nc2cccc(C(F)(F)F)c2)[C@@H]2C(C)=CC[C@H]12", "note": "[I-160]", "inhibition at 320 µM (stock)": 6.3}
{"smiles": "COC(=O)C1=CO[C@@H](OC(=O)Nc2ccc(OC)cc2)[C@@H]2C(C)=CC[C@H]12", "note": "[I-161]", "inhibition at 320 µM (stock)": 14.4}
{"smiles": "COC(=O)C1=CO[C@@H](OC(=O)Nc2ccc(Cl)cc2)[C@@H]2C(C)=CC[C@H]12", "note": "[I-162]", "inhibition at 320 µM (stock)": 8.9}
{"smiles": "COC(=O)C1=CO[C@@H](OC(=O)Nc2ccc(Cl)c(Cl)c2)[C@@H]2C(C)=CC[C@H]12", "note": "[I-163]", "inhibition at 320 µM (stock)": 5.6}
{"smiles": "COC(=O)C1=CO[C@@H](OC(=O)Nc2ccc(Cl)cc2C(F)(F)F)[C@@H]2C(C)=CC[C@H]12", "note": "[I-164]", "inhibition at 320 µM (stock)": 5.9}
{"smiles": "COC(=O)C1=CO[C@@H](OC(=O)Nc2ccc(OC(F)(F)F)cc2)[C@@H]2C(C)=CC[C@H]12", "note": "[I-165]", "inhibition at 320 µM (stock)": 12.5}
{"smiles": "COC(=O)C1=CO[C@@H](OC(=O)Nc2cccc(C#N)c2)[C@@H]2C(C)=CC[C@H]12", "note": "[I-166]", "inhibition at 320 µM (stock)": 8.7}
{"smiles": "CCOC(=O)c1ccc(NC(=O)O[C@@H]2OC=C(C(=O)OC)[C@H]3CC=C(C)[C@@H]23)cc1", "note": "[I-167]", "inhibition at 320 µM (stock)": 4.1}
{"smiles": "COC(=O)C1=CO[C@@H](OC(=O)Nc2ccc([N+](=O)[O-])cc2)[C@@H]2C(C)=CC[C@H]12", "note": "[I-168]", "inhibition at 320 µM (stock)": 17.2}
{"smiles": "COC(=O)C1=CO[C@@H](OC(=O)Nc2ccc(C)cc2)[C@@H]2C(C)=CC[C@H]12", "note": "[I-169]", "inhibition at 320 µM (stock)": 12.6}
{"smiles": "COC(=O)C1=CO[C@@H](OC(=O)Nc2ccccc2)[C@@H]2C(C)=CC[C@H]12", "note": "[I-170]", "inhibition at 320 µM (stock)": 6.7}
{"smiles": "COC(=O)C1=CO[C@@H](OC(=O)Nc2cccc(C(C)=O)c2)[C@@H]2C(C)=CC[C@H]12", "note": "[I-171]", "inhibition at 320 µM (stock)": 3}
{"smiles": "COC(=O)C1=CO[C@@H](OC(=O)Nc2ccc(SC)cc2)[C@@H]2C(C)=CC[C@H]12", "note": "[I-172]", "inhibition at 320 µM (stock)": 5.5}
{"smiles": "COC(=O)C1=CO[C@@H](OC(=O)NCCCl)[C@@H]2C(C)=CC[C@H]12", "note": "[I-173]", "inhibition at 320 µM (stock)": 108}
{"smiles": "CNC(=O)O[C@@H]1OC=C(C(=O)OC)[C@H]2CC=C(C)[C@@H]12", "note": "[I-174]", "inhibition at 320 µM (stock)": 12.9}
{"smiles": "CCCCCCNC(=O)O[C@@H]1OC=C(C(=O)OC)[C@H]2CC[C@H](C)[C@@H]12", "note": "[I-175]", "inhibition at 320 µM (stock)": 19.5}
